Values quoted from earlier work, collected in patent US7064108B2 (Merck & Co., Inc., priority 2002, dated 2006).

Legend:
[1] = tested on: head lice (Pediculosis capitis); details: single oral 200 ug/kg dose, 26 patients
Onchocerca volvulus [2] = tested on: Onchocerca volvulus
[3] = tested on: mammalian ligand-gated chloride channels
[4] = amicrofilaremic population in mass treatment programs
[5] = tested on: glutamate-gated chloride ion channels; details: invertebrate nerve and muscle cells
head lice [6] = details: single oral dose of 100–200 ug/kg
head lice [7] = details: after a single topical application
Onchocerca volvulus [8] = details: after one month; single oral dose approximately 150 ug/kg

Compound	plasma half life (metabolite of ivermectin)	effect against head lice [1]	activity against adult form (Onchocerca volvulus [2]; adult form of Onchocerca volvulus)	activity against tissue microfilariae (Onchocerca volvulus [2]; tissue microfilariae of Onchocerca volvulus)	affinity for mammalian ligand-gated chloride channels [3]	overall incidences of adverse experiences [4] [%]	affinity for glutamate-gated chloride ion channels [5]	plasma half-life (in vivo) [h]	effect on head lice infestation (head lice [6])	effect on head lice (head lice [7])	dermal microfilarial density (Onchocerca volvulus [8])
Nc1nc2cccc(-c3ccc(CN4CCS(=O)(=O)CC4)cc3)n2n1 [metabolite]	about 3 days										
Ivermectin		effectiveness	not against the adult form	active	low affinity	1	high affinity	15 to 20	significant, but not absolute, effect	absolute curative effect	near zero
